Laboratory results: patent US20100298375A1, “MEDICAMENT COMPRISING A CARBOSTYRIL DERIVATIVE AND DONEPEZIL FOR TREATING ALZHEIMER'S DISEASE” (priority 2007, published 2010)
Counter-ions that a name gives are not always drawn.

System: women suffering from Alzheimer's disease
Test: mini-mental state examination (MMSE) in patients with Alzheimer's disease
Type: in vivo
Experimental: To two women suffering from Alzheimer's disease (one was […] and the other was […]), donepezil hydrochloride (Aricept®) had been administered in a dose of 5 mg/day for 12 months and 9 months, respectively. […] At the beginning time of the experiment (0 month), the administration of cilostazol in a dose of 100 mg/day started as the combination with donepezil hydrochloride.

COc1cc2c(cc1OC)C(=O)C(CC1CCN(Cc3ccccc3)CC1)C2 (stereo not drawn) [donepezil hydrochloride]
MMSE Score (Patient 1, at start of cilostazol, donepezil hydrochloride 5 mg/day alone until then): 13
MMSE Score (Patient 1, −3 Ms, donepezil hydrochloride 5 mg/day alone): 16
MMSE Score (Patient 1, −6 Ms, donepezil hydrochloride 5 mg/day alone): 17
MMSE Score (Patient 1, −9 Ms, donepezil hydrochloride 5 mg/day alone): 17
MMSE Score (Patient 2, at start of cilostazol, donepezil hydrochloride 5 mg/day alone until then): 6
MMSE Score (Patient 2, −3 Ms, donepezil hydrochloride 5 mg/day alone): 10
MMSE Score (Patient 2, −6 Ms, donepezil hydrochloride 5 mg/day alone): 12
MMSE Score (Patient 2, −9 Ms, donepezil hydrochloride 5 mg/day alone): 13
MMSE Score (Patient 2, −12 Ms, donepezil hydrochloride 5 mg/day alone): 16
